Test results from patent US20250092065A1, “2-(INDAZOL-5-YL)-6-(PIPERIDIN-4-YL)-1,7-NAPHTHYRIDINE DERIVATIVES AND RELATED COMPOUNDS AS MODULATORS FOR SPLICING NUCLEIC ACIDS AND FOR THE TREATMENT OF PROLIFERATIVE DISEASES” (REMIX THERAPEUTICS INC., priority 2022, published 2025).
Where two headings read alike, the source gives them in different places.

Assays:
MYB mRNA = experiment: RT-qPCR splicing assay, MYB mRNA canonical (CJ) and alternative (AJ) junction; format: cell-based, human; conditions: Homo sapiens; for AC50: MYB alternative junction mRNA, read-out: MYB AJ (increase in AJ mRNA, AC50)
Outline: (§1)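 Canonical and alternative-exon junction isoforms were quantified by RT-qPCR in cell lysates, with ΔCt against a housekeeper (GAPDH/GUSB/PPIA), then ΔΔCt vs DMSO, converted to 2^(−ΔΔCt) and percent response. K562 or A673 cells were exposed for 24 h to 11 concentrations (3-fold, top final 10 uM).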

SMN2 mRNA = experiment: RT-qPCR splicing assay, SMN2 mRNA; format: cell-based, human; conditions: Homo sapiens, canonical junction qPCR panel, Table 4; read-out: SMN2 IC50 (decrease in CJ mRNA levels)
Outline: as §1

MYB = experiment: HiBiT protein abundance assay, MYB (K562 HiBiT knock-in); format: cell-based, human; conditions: HiBiT knock-in K562 cells, 24 hours, top dose 10 μM
Outline: (§2)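 K562 HiBiT knock-in, 24 h, 37 °C, top 10 μM final, 3-fold ×10, DMSO ≤0.25%. Lytic HiBiT luminescence; PC = parental K562, NC = DMSO; 4PL IC50.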

HTT = experiment: HiBiT protein abundance assay, HTT (K562 HiBiT knock-in); format: cell-based, human; conditions: HiBiT knock-in K562 cells, 24 hours, top dose 10 μM
Outline: as §2

Target C = experiment: HiBiT protein abundance assay, Target C (K562 HiBiT knock-in); format: cell-based, human; conditions: HiBiT knock-in K562 cells, 24 hours, top dose 10 μM
Outline: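 K562 HiBiT knock-in cells (10000/well) were treated 24 h at 37° C with a 10-point 3-fold dilution series (top 10 μM final, ≤0.25% DMSO). HiBiT luminescence was read after lytic LgBiT detection. Percent response used unmodified K562 and DMSO-treated knock-in controls, and IC50 came from a four-parameter fit at 50% of untreated.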

K562 cells = experiment: Cell Titer Glo 2.0 cell viability (toxicity) assay, K562; conditions: 500 cells/well, 72 hours
[1] = MYB canonical junction mRNA, RT-qPCR, read-out: MYB CJ (decrease in CJ mRNA levels, IC50)
[2] = canonical junction qPCR panel, Table 4, read-out: MYB IC50 (decrease in CJ mRNA levels)

**Q.** How did the AC50 (MYB mRNA; RT-qPCR) turn out when `Cc1nc2c(F)c(O)c(-c3ccc4nc(N5CCC(NC6(C)CC6)C5)ccc4n3)cc2o1` (stereo in doubt) [Compound 327, 4-fluoro-2-methyl-6-{6-[(3R)-3-[(1-methylcyclopropyl)amino]pyrrolidin-1-yl]-1,5-naphthyridin-2-yl}-1,3-benzoxazol-5-ol] was run?
**A.** < 100 nM

**Q.** What about the IC50 (MYB mRNA; [1]) of the same compound?
**A.** < 100 nM

**Q.** What about the IC50 (MYB mRNA; [2]) of the same compound?
**A.** < 100 nM

**Q.** What about the IC50 (SMN2 mRNA) of the same compound?
**A.** < 100 nM

**Q.** And the IC50 (MYB)?
**A.** < 100 nM

**Q.** What about the IC50 (HTT) of the same compound?
**A.** < 100 nM

**Q.** What about the IC50 (Target C) of the same compound?
**A.** < 100 nM

**Q.** What about the “Effect of Exemplary Compounds on Cell Viability, K562” value (“Effect of Exemplary Compounds” for short) (K562 cells) of the same compound?
**A.** B (B represents 100-1000 nM)

**Q.** For `Cc1nc2c(C)c(O)c(-c3ccc4nc(N5CC[C@H](NC(C)(C)C)C5)ccc4n3)cc2o1` [Compound 214], which AC50 (MYB mRNA; RT-qPCR) is on record?
**A.** 100 to 1000 nM

**Q.** What about the IC50 (MYB mRNA; [1]) of the same compound?
**A.** 100 to 1000 nM

**Q.** And the IC50 (MYB mRNA; [2])?
**A.** 100 to 1000 nM

**Q.** And the IC50 (SMN2 mRNA)?
**A.** < 100 nM

**Q.** What about the IC50 (MYB) of the same compound?
**A.** < 100 nM

**Q.** And the IC50 (HTT)?
**A.** < 100 nM

**Q.** And the IC50 (Target C)?
**A.** < 100 nM

**Q.** And the “Effect of Exemplary Compounds” value (K562 cells)?
**A.** A (A represents <100 nM)

**Q.** How did the AC50 (MYB mRNA; RT-qPCR) turn out when `Cc1nc2c(C)c(O)c(-c3ccc4nc(N5CC[C@H](NC6CC6)C5)ccc4n3)cc2o1` [Compound 216] was run?
**A.** < 100 nM

**Q.** And the IC50 (MYB mRNA; [1])?
**A.** < 100 nM

**Q.** And the IC50 (MYB mRNA; [2])?
**A.** < 100 nM

**Q.** What about the IC50 (SMN2 mRNA) of the same compound?
**A.** < 100 nM

**Q.** What about the IC50 (MYB) of the same compound?
**A.** < 100 nM

**Q.** What about the IC50 (HTT) of the same compound?
**A.** < 100 nM

**Q.** What about the IC50 (Target C) of the same compound?
**A.** < 100 nM

**Q.** And the “Effect of Exemplary Compounds” value (K562 cells)?
**A.** B (B represents 100-1000 nM)

**Q.** With `Cc1nc2c(C)c(O)c(-c3ccc4nc(N5CC[C@@H](NC6CC6)C5)ccc4n3)cc2o1` [Compound 217] as the compound, how does the AC50 (MYB mRNA; RT-qPCR) read?
**A.** < 100 nM

**Q.** And the IC50 (MYB mRNA; [1])?
**A.** < 100 nM

**Q.** And the IC50 (MYB mRNA; [2])?
**A.** < 100 nM

**Q.** What about the IC50 (SMN2 mRNA) of the same compound?
**A.** < 100 nM

**Q.** What about the IC50 (MYB) of the same compound?
**A.** < 100 nM

**Q.** And the IC50 (HTT)?
**A.** < 100 nM

**Q.** What about the IC50 (Target C) of the same compound?
**A.** < 100 nM

**Q.** What about the “Effect of Exemplary Compounds” value (K562 cells) of the same compound?
**A.** B (B represents 100-1000 nM)

**Q.** How did the AC50 (MYB mRNA; RT-qPCR) turn out when `Cn1cc2cc(-c3ccc4nc(N5CCC(NC6(C)CC6)C5)ccc4n3)c(O)cc2n1` (centres unmarked) [Compound 219] was run?
**A.** < 100 nM

**Q.** What about the IC50 (MYB mRNA; [1]) of the same compound?
**A.** < 100 nM

**Q.** And the IC50 (MYB mRNA; [2])?
**A.** < 100 nM

**Q.** What about the IC50 (SMN2 mRNA) of the same compound?
**A.** < 100 nM

**Q.** And the IC50 (MYB)?
**A.** < 100 nM

**Q.** What about the IC50 (HTT) of the same compound?
**A.** < 100 nM

**Q.** And the IC50 (Target C)?
**A.** < 100 nM

**Q.** What about the “Effect of Exemplary Compounds” value (K562 cells) of the same compound?
**A.** A (A represents <100 nM)

**Q.** Which results are given for `Cc1nc2cc(O)c(-c3ccc4nc(N5CC[C@@H](NC6CCC6)C5)ccc4n3)cc2o1` [Compound 229]?
**A.** AC50 (MYB mRNA; RT-qPCR): < 100 nM; IC50 (MYB mRNA; [1]): < 100 nM; IC50 (MYB mRNA; [2]): < 100 nM; IC50 (SMN2 mRNA): < 100 nM; IC50 (MYB): < 100 nM; IC50 (HTT): < 100 nM; IC50 (Target C): < 100 nM; Effect of Exemplary Compounds on Cell Viability, K562 (K562 cells): B (B represents 100-1000 nM)

**Q.** For `Cc1nc2cc(O)c(-c3ccc4nc(N5CC[C@H](NC6CCC6)C5)ccc4n3)cc2o1` [Compound 230], which AC50 (MYB mRNA; RT-qPCR) is on record?
**A.** 100 to 1000 nM

**Q.** And the IC50 (MYB mRNA; [1])?
**A.** 100 to 1000 nM

**Q.** And the IC50 (MYB mRNA; [2])?
**A.** 100 to 1000 nM

**Q.** And the IC50 (SMN2 mRNA)?
**A.** < 100 nM

**Q.** What about the IC50 (MYB) of the same compound?
**A.** 100 to 1000 nM

**Q.** What about the IC50 (HTT) of the same compound?
**A.** < 100 nM

**Q.** And the IC50 (Target C)?
**A.** < 100 nM

**Q.** What about the “Effect of Exemplary Compounds” value (K562 cells) of the same compound?
**A.** B (B represents 100-1000 nM)

**Q.** `Cc1nc2cc(O)c(-c3ccc4nc(N5CCC(NC(C)C)C5)ccc4n3)cc2o1` (centres unmarked) [Compound 231] was tested. Which AC50 (MYB mRNA; RT-qPCR) did it give?
**A.** < 100 nM

**Q.** What about the IC50 (MYB mRNA; [1]) of the same compound?
**A.** < 100 nM

**Q.** And the IC50 (MYB mRNA; [2])?
**A.** < 100 nM

**Q.** What about the IC50 (SMN2 mRNA) of the same compound?
**A.** < 100 nM

**Q.** And the IC50 (MYB)?
**A.** < 100 nM

**Q.** What about the IC50 (HTT) of the same compound?
**A.** < 100 nM

**Q.** And the IC50 (Target C)?
**A.** < 100 nM

**Q.** And the “Effect of Exemplary Compounds” value (K562 cells)?
**A.** A (A represents <100 nM)

**Q.** Which AC50 (MYB mRNA; RT-qPCR) does the source give for `Cc1nc2c(C)c(O)c(-c3ccc4nc(N5CCC(NC6CCC6)C5)ccc4n3)cc2o1` (centres unmarked) [Compound 235] here?
**A.** < 100 nM

**Q.** What about the IC50 (MYB mRNA; [1]) of the same compound?
**A.** < 100 nM

**Q.** And the IC50 (MYB mRNA; [2])?
**A.** < 100 nM

**Q.** And the IC50 (SMN2 mRNA)?
**A.** < 100 nM

**Q.** And the IC50 (MYB)?
**A.** < 100 nM

**Q.** And the IC50 (HTT)?
**A.** < 100 nM

**Q.** What about the IC50 (Target C) of the same compound?
**A.** < 100 nM

**Q.** What about the “Effect of Exemplary Compounds” value (K562 cells) of the same compound?
**A.** B (B represents 100-1000 nM)

**Q.** What does the source list for `Cc1nc2c(C)c(O)c(-c3ccc4nc(N5CC[C@@H](NC6CCC6)C5)ccc4n3)cc2o1` [Compound 236]?
**A.** AC50 (MYB mRNA; RT-qPCR): < 100 nM; IC50 (MYB mRNA; [1]): < 100 nM; IC50 (MYB mRNA; [2]): < 100 nM; IC50 (SMN2 mRNA): < 100 nM; IC50 (MYB): < 100 nM; IC50 (HTT): < 100 nM; IC50 (Target C): < 100 nM; Effect of Exemplary Compounds on Cell Viability, K562 (K562 cells): B (B represents 100-1000 nM)
